pEC50: −log10 of the molar value. Numbered stars: 1 amine (or outer) side, 2 acyl side, 3 side chain; on linkers, the order of the positions; unused ones are H or OH. Side chains are listed from the residue outwards. Peptide text beside a SMILES is read from it. * marks the point of attachment. γGlu = O=C(O)[C@H](CCC(=O)[*:2])N[*:1]; Palmitoyl = CCCCCCCCCCCCCCCC(=O)*; Ahx = NCCCCCC(=O)O
Columns and labels:
Assay in all cases: cAMP activity assay in assay medium (assay 1)
Assay type in all cases: cell-based
Human GLP1R = Human GLP1R (Homo sapiens, UniProt P43220); parameters: expressed in transfected cells; conditions: assay medium; Table 4; read-out: hGLP1R EC50
Chain of Human GLP1R (P43220 24-463): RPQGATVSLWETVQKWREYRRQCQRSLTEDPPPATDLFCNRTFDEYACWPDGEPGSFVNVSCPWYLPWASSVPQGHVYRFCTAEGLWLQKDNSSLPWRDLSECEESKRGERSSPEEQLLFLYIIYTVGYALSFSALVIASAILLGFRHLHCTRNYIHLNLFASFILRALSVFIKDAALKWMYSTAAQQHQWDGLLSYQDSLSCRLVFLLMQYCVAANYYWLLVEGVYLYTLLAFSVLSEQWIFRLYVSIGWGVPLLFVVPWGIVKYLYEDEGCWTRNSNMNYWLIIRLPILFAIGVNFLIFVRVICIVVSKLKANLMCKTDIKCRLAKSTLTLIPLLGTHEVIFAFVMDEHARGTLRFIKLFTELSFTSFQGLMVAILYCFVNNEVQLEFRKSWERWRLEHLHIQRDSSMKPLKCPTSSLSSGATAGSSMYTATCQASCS
Text: (§1) Biological Activity of Peptides in Cell-Based cAMP Activity Assay (Assay 1):
(§2) All sample dilutions were made in duplicate.

Human GIPr = target: T1, Human GIPr (Homo sapiens, UniProt P48546); conditions: assay medium; Table 4; read-out: hGIPR EC50
T1 construct: expressed in transfected cells
T1 sequence (P48546 22-466): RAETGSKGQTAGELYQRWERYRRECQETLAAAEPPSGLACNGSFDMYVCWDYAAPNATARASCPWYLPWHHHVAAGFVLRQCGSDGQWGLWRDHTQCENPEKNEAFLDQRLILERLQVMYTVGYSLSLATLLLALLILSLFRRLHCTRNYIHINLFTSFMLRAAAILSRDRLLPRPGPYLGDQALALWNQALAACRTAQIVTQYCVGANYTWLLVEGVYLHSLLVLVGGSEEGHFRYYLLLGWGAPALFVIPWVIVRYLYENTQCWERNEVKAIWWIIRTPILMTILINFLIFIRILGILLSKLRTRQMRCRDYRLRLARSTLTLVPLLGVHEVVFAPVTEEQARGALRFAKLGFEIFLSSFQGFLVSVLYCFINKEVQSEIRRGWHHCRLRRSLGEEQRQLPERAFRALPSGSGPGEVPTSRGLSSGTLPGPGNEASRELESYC
Text: as §1, §2

Human GlucR = target: T2, Human GlucR (Homo sapiens, UniProt P47871); conditions: assay medium; Table 4; read-out: hGlucR EC50
T2 construct: expressed in transfected cells
T2 sequence (P47871 26-477): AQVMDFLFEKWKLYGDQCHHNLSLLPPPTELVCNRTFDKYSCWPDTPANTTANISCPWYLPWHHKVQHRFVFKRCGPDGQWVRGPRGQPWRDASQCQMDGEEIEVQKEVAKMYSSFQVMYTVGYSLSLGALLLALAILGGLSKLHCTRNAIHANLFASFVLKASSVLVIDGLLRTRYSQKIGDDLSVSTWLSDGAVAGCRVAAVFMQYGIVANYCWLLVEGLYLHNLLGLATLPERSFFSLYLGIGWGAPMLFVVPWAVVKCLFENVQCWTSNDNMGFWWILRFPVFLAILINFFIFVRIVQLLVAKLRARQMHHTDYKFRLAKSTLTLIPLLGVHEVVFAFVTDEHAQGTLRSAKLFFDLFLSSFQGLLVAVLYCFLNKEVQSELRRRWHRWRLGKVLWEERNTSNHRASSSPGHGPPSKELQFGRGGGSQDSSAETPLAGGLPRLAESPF
Text: as §1, §2

| Structure (SMILES) | pEC50 (Human GLP1R) | pEC50 (Human GIPr) | pEC50 (Human GlucR) |
| --- | --- | --- | --- |
| CCCCCCCCCCCCCCCC(=O)N[C@@H](CCC(=O)NCCCC[C@H](NC(=O)[C@H](Cc1ccc(O)cc1)NC(=O)[C@H](CCCCN)NC(=O)[C@H](CO)NC(=O)[C@H](Cc1ccc(O)cc1)NC(=O)[C@H](CC(=O)O)NC(=O)[C@H](CO)NC(=O)[C@@H](NC(=O)[C@H](Cc1ccccc1)NC(=O)[C@@H](NC(=O)CNC(=O)[C@H](CCC(N)=O)NC(=O)[C@H](CO)NC(=O)[C@@H](N)Cc1c[nH]cn1)[C@@H](C)O)[C@@H](C)O)C(=O)N[C@@H](CC(=O)O)C(=O)N[C@@H](CO)C(=O)N[C@@H](CCCNC(=N)N)C(=O)N[C@@H](CCCNC(=N)N)C(=O)N[C@@H](C)C(=O)N[C@@H](CCCNC(=N)N)C(=O)N[C@@H](CC(=O)O)C(=O)N[C@@H](Cc1ccccc1)C(=O)N[C@H](C(=O)N[C@@H](CCC(=O)O)C(=O)N[C@@H](Cc1c[nH]c2ccccc12)C(=O)N[C@@H](CC(C)C)C(=O)N[C@@H](CCC(=O)O)C(=O)N[C@@H](C)C(=O)NCC(=O)NCC(N)=O)C(C)C)C(=O)O [g824] (H-HSQGTFTSDYSKYK([γGlu-Palmitoyl])DSRRARDFVEWLEAGG-NH2; N-terminus assumed) | 10.33 | 7.24 | 11.98 |
| CCCCCCCCCCCCCCCC(=O)NCCCCCC(=O)NCCCC[C@H](NC(=O)[C@H](CO)NC(=O)[C@H](CC(=O)O)NC(=O)[C@H](CC(C)C)NC(=O)[C@H](Cc1ccc(O)cc1)NC(=O)[C@H](CCC(=O)O)NC(=O)[C@H](CO)NC(=O)[C@H](Cc1ccc(O)cc1)NC(=O)[C@H](CC(=O)O)NC(=O)[C@H](CO)NC(=O)[C@@H](NC(=O)[C@H](Cc1ccccc1)NC(=O)[C@@H](NC(=O)CNC(=O)[C@H](CCC(N)=O)NC(=O)[C@H](CO)NC(=O)[C@@H](N)Cc1c[nH]cn1)[C@@H](C)O)[C@@H](C)O)C(=O)N[C@@H](CCCNC(=N)N)C(=O)N[C@@H](C)C(=O)N[C@@H](CCCNC(=N)N)C(=O)N[C@@H](CC(=O)O)C(=O)N[C@@H](Cc1ccccc1)C(=O)N[C@H](C(=O)N[C@@H](C)C(=O)N[C@@H](Cc1c[nH]c2ccccc12)C(=O)N[C@@H](CC(C)C)C(=O)N[C@@H](CCC(=O)O)C(=O)N[C@@H](CCCNC(=N)N)C(=O)NCC(=O)NCC(=O)O)C(C)C [g826] (H-HSQGTFTSDYSEYLDSK([Ahx-Palmitoyl])RARDFVAWLERGG-OH; N-terminus assumed) | 10.53 | 7.24 | 11.37 |
| CCCCCCCCCCCCCCCC(=O)N[C@@H](CCC(=O)NCCCC[C@H](NC(=O)[C@H](CO)NC(=O)[C@H](CC(=O)O)NC(=O)[C@H](CC(C)C)NC(=O)[C@H](Cc1ccc(O)cc1)NC(=O)[C@H](CCC(=O)O)NC(=O)[C@H](CO)NC(=O)[C@H](Cc1ccc(O)cc1)NC(=O)[C@H](CC(=O)O)NC(=O)[C@H](CO)NC(=O)[C@@H](NC(=O)[C@H](Cc1ccccc1)NC(=O)[C@@H](NC(=O)CNC(=O)[C@H](CCC(N)=O)NC(=O)[C@H](CO)NC(=O)[C@@H](N)Cc1c[nH]cn1)[C@@H](C)O)[C@@H](C)O)C(=O)N[C@@H](CCCNC(=N)N)C(=O)N[C@@H](C)C(=O)N[C@@H](CCCNC(=N)N)C(=O)N[C@@H](CC(=O)O)C(=O)N[C@@H](Cc1ccccc1)C(=O)N[C@H](C(=O)N[C@@H](CCC(=O)O)C(=O)N[C@@H](Cc1c[nH]c2ccccc12)C(=O)N[C@@H](CC(C)C)C(=O)N[C@H](C(=O)N[C@@H](C)C(=O)NCC(=O)NCC(N)=O)C(C)C)C(C)C)C(=O)O [g835] (H-HSQGTFTSDYSEYLDSK([γGlu-Palmitoyl])RARDFVEWLVAGG-NH2; N-terminus assumed) | 9.72 | 7.01 | 9.37 |
| CCCCCCCCCCCCCCCC(=O)N[C@@H](CCC(=O)NCCCC[C@H](NC(=O)[C@H](Cc1ccc(O)cc1)NC(=O)[C@H](CCCCN)NC(=O)[C@H](CO)NC(=O)[C@H](Cc1ccc(O)cc1)NC(=O)[C@H](CC(=O)O)NC(=O)[C@H](CO)NC(=O)[C@@H](NC(=O)[C@H](Cc1ccccc1)NC(=O)[C@@H](NC(=O)CNC(=O)[C@H](CCC(N)=O)NC(=O)[C@H](CO)NC(=O)[C@@H](N)Cc1c[nH]cn1)[C@@H](C)O)[C@@H](C)O)C(=O)N[C@@H](CC(=O)O)C(=O)N[C@@H](CO)C(=O)N[C@@H](CCC(=O)O)C(=O)N[C@@H](CCCNC(=N)N)C(=O)N[C@@H](C)C(=O)N[C@@H](CCCNC(=N)N)C(=O)N[C@@H](CC(=O)O)C(=O)N[C@@H](Cc1ccccc1)C(=O)N[C@H](C(=O)N[C@@H](CCC(=O)O)C(=O)N[C@@H](Cc1c[nH]c2ccccc12)C(=O)N[C@@H](CC(C)C)C(=O)N[C@@H](CCC(=O)O)C(=O)N[C@@H](C)C(=O)NCC(=O)NCC(N)=O)C(C)C)C(=O)O [g836] (H-HSQGTFTSDYSKYK([γGlu-Palmitoyl])DSERARDFVEWLEAGG-NH2; N-terminus assumed) | 9.91 | 7.00 | 10.81 |
| CCCCCCCCCCCCCCCC(=O)N[C@@H](CCC(=O)NCCCC[C@H](NC(=O)[C@H](CO)NC(=O)[C@H](CC(=O)O)NC(=O)[C@H](CC(C)C)NC(=O)[C@H](Cc1ccc(O)cc1)NC(=O)[C@H](CCC(=O)O)NC(=O)[C@H](CO)NC(=O)[C@H](Cc1ccc(O)cc1)NC(=O)[C@H](CC(=O)O)NC(=O)[C@H](CO)NC(=O)[C@@H](NC(=O)[C@H](Cc1ccccc1)NC(=O)[C@@H](NC(=O)CNC(=O)[C@H](CCC(N)=O)NC(=O)[C@H](CO)NC(=O)[C@@H](N)Cc1c[nH]cn1)[C@@H](C)O)[C@@H](C)O)C(=O)N[C@@H](CCCNC(=N)N)C(=O)N[C@@H](C)C(=O)N[C@@H](CCCNC(=N)N)C(=O)N[C@@H](CC(=O)O)C(=O)N[C@@H](Cc1ccccc1)C(=O)N[C@H](C(=O)N[C@@H](C)C(=O)N[C@@H](Cc1c[nH]c2ccccc12)C(=O)N[C@@H](CC(C)C)C(=O)N[C@@H](CCC(=O)O)C(=O)N[C@@H](C)C(=O)NCC(=O)NCC(N)=O)C(C)C)C(=O)O [g837] (H-HSQGTFTSDYSEYLDSK([γGlu-Palmitoyl])RARDFVAWLEAGG-NH2; N-terminus assumed) | 9.33 | 6.94 | 9.67 |
| CCCCCCCCCCCCCCCC(=O)NCCCCCC(=O)NCCCC[C@H](NC(=O)[C@H](CO)NC(=O)[C@H](CC(=O)O)NC(=O)[C@H](CC(C)C)NC(=O)[C@H](Cc1ccc(O)cc1)NC(=O)[C@H](CCC(=O)O)NC(=O)[C@H](CO)NC(=O)[C@H](Cc1ccc(O)cc1)NC(=O)[C@H](CC(=O)O)NC(=O)[C@H](CO)NC(=O)[C@@H](NC(=O)[C@H](Cc1ccccc1)NC(=O)[C@@H](NC(=O)CNC(=O)[C@H](CCC(N)=O)NC(=O)[C@H](CO)NC(=O)[C@@H](N)Cc1c[nH]cn1)[C@@H](C)O)[C@@H](C)O)C(=O)N[C@@H](CCCNC(=N)N)C(=O)N[C@@H](C)C(=O)N[C@@H](CCCNC(=N)N)C(=O)N[C@@H](CC(=O)O)C(=O)N[C@@H](Cc1ccccc1)C(=O)N[C@H](C(=O)N[C@@H](C)C(=O)N[C@@H](Cc1c[nH]c2ccccc12)C(=O)N[C@@H](CC(C)C)C(=O)N[C@@H](CCC(=O)O)C(=O)N[C@@H](C)C(=O)NCC(=O)NCC(N)=O)C(C)C [g838] (H-HSQGTFTSDYSEYLDSK([Ahx-Palmitoyl])RARDFVAWLEAGG-NH2; N-terminus assumed) | 10.63 | 7.07 | 11.25 |
